# Test results from paper PMC8205226, “HIV-1 Integrase Inhibitors with Modifications That Affect Their Potencies against Drug Resistant Integrase Mutants” (ACS Infectious Diseases, 2021).
# Where two headings read alike, the source gives them in different places.
# Legend:
# Assay type in all cases: cell-based
# [1] = test system: HIV-1 IN double mutant G140S/Q148H; test: single-round infectivity assay, G140S/Q148H IN double mutant
# Description: (§1) Figure 2 Antiviral activities of the new compounds against RAL-resistant mutants. The EC50 values were determined using a vector that carries WT HIV-1 IN and the RAL-resistant mutants in a single round infection assay. […] Error bars represent the standard deviations of independent experiments, n = 4, performed in triplicate. The graph has a maximum value of 550 nM.
# (§2) WT and mutant HIV-1 viral vectors were used in single-round infectivity assays to determine the antiviral potencies (EC50 values) of the compounds and the effects of the mutants on the EC50 values as previously described.[30],[54] Single round infectivity measurements were determined as done previously.[38]
# (§3) The vector pNLNgoMIVR-ΔENV.LUC has been described previously.[26] To produce the new IN mutants used in this study, the IN open reading frame was removed from pNLNgoMIVR-ΔENV.LUC by digestion with KpnI and SalI, and the resulting fragment was inserted between the KpnI and SalI sites of pBluescript KS+. Using that construct as the wild-type template, we prepared the following HIV-1 IN mutants using the QuikChange II XL site directed mutagenesis kit (Agilent Technologies, Santa Clara, CA) protocol: N117A, N117H, P142A, P142H, P142S, Y143C, Y143H, S230R, R231G, and R231K. The following sense oligonucleotides were used with matching cognate antisense oligonucleotides (not shown) (Integrated DNA Technologies, Coralville, IA) in the mutagenesis: N117A, 5′-[…]-3′; N117H, 5′-[…]-3′; P142A, 5′-[…]-3′; P142H, 5′-[…]-3′; P142S, 5′-[…]-3′; Y143C, 5′- […]-3′; Y143H, 5′-[…]-3′; S230R, 5′- […]-3′; R231G, 5′-[…]-3′; R231K, 5′-[…]-3′.
# [2] = test system: HIV-1 IN mutant S230R; test: single-round infectivity assay, S230R IN mutant
# Description: (§4) Figure 5 Antiviral potencies of the new compounds against IN with mutations in the […]. The EC50 values were determined using a vector that carries the IN mutant in a single round infection assay. […] Error bars represent the standard deviations of independent experiments, n = 4, performed in triplicate.
# as §2, §3
# [3] = test system: HIV-1 IN mutant N155H; test: single-round infectivity assay, N155H IN mutant
# Description: as §1, §2, §3
# [4] = test system: HIV-1 IN mutant N117A; test: single-round infectivity assay, N117A IN mutant
# Description: (§5) The EC50 values were determined using a vector that carries the IN mutant in a single round infection assay. […] Error bars represent the standard deviations of independent experiments, n = 4, performed in triplicate.
# as §2, §3
# [5] = test system: HIV-1 IN mutant R231G; test: single-round infectivity assay, R231G IN mutant
# Description: as §4, §2, §3
# [6] = test system: HIV-1 IN mutant G118R; test: single-round infectivity assay, G118R IN mutant
# Description: as §5, §2, §3
# [7] = test system: HIV-1 IN mutant Y143H; test: single-round infectivity assay, Y143H IN mutant
# Description: as §5, with “Figure 4 Mutations in the β5-α3 loop affect the antiviral potencies of the new compounds. The” for “The”
# as §2, §3
# [8] = test system: HIV-1 IN mutant P142S; test: single-round infectivity assay, P142S IN mutant
# Description: as §5, with “Figure 4 Mutations in the β5-α3 loop affect the antiviral potencies of the new compounds. The” for “The”
# as §2, §3
# [9] = test system: HIV-1 IN mutant Y143C; test: single-round infectivity assay, Y143C IN mutant
# Description: as §5, with “Figure 4 Mutations in the β5-α3 loop affect the antiviral potencies of the new compounds. The” for “The”
# as §2, §3
# [10] = test system: HIV-1 IN mutant R231K; test: single-round infectivity assay, R231K IN mutant
# Description: as §4, §2, §3
# [11] = test system: WT HIV-1; test: single-round infectivity assay, WT HIV-1 IN vector; conditions: new compounds
# Description: as §1, §2, §3
# [12] = test system: HIV-1 IN mutant S119R; test: single-round infectivity assay, S119R IN mutant
# Description: as §5, §2, §3
# [13] = test system: HIV-1 IN mutant N117H; test: single-round infectivity assay, N117H IN mutant
# Description: as §5, §2, §3
# [14] = test system: HIV-1 IN mutant Y143R; test: single-round infectivity assay, Y143R IN mutant
# Description: as §1, §2, §3
# [15] = test system: HIV-1 IN mutant P142H; test: single-round infectivity assay, P142H IN mutant
# Description: as §5
# Single round infectivity measurements were determined as done previously.[38]
# as §3
# [16] = test system: HIV-1 IN mutant P142A; test: single-round infectivity assay, P142A IN mutant
# Description: as §5, with “Figure 4 Mutations in the β5-α3 loop affect the antiviral potencies of the new compounds. The” for “The”
# as §2, §3
# [17] = fold change in EC50, IN mutant versus WT HIV-1
smiles,measurement,setting,value
"Nc1c(C(=O)NCc2ccc(F)cc2F)c(=O)n(O)c2ncc(CCS(=O)(=O)CCN3CCOCC3)cc12 [6v, 4-Amino-N-(2,4-difluorobenzyl)-1-hydroxy-6-(2-((2-morpholinoethyl)sulfonyl)ethyl)-2-oxo-1,2-dihydro-1,8-naphthyridine-3-carboxamide]",ratio of the EC50s (our compound relative to DTG) against G140S/Q148H,[1]; EC50 compound / EC50 DTG,71.1
same,EC50,"[1]; Human immunodeficiency virus 1, read-out: EC50 values G140S/Q148H",0.413 ± 0.12 µM
same,FC G140S/Q148H,[1]; [17],1.5
same,ratio of the EC50s (our compound relative to DTG) against S230R,[2]; EC50 compound / EC50 DTG,134.0
same,EC50,"[2]; Human immunodeficiency virus 1, read-out: EC50 values S230R",0.616 ± 0.0798 µM
same,FC S230R,[2]; [17],2.3
same,ratio of the EC50s (our compound relative to DTG) against N155H,[3]; EC50 compound / EC50 DTG,38.8
same,EC50,"[3]; Human immunodeficiency virus 1, read-out: EC50 values N155H",0.14 ± 0.0049 µM
same,FC N155H,[3]; [17],0.5
same,ratio of the EC50s (our compound relative to DTG) against N117A,[4]; EC50 compound / EC50 DTG,319.0
same,EC50,"[4]; Human immunodeficiency virus 1, read-out: EC50 values N117A",0.16 µM
same,FC N117A,[4]; [17],0.6
same,ratio of the EC50s (our compound relative to DTG) against R231G,[5]; EC50 compound / EC50 DTG,133.8
same,EC50,"[5]; Human immunodeficiency virus 1, read-out: EC50 values R231G",0.187 ± 0.017 µM
same,FC R231G,[5]; [17],0.7
same,ratio of the EC50s (our compound relative to DTG) against G118R,[6]; EC50 compound / EC50 DTG,88.3
same,EC50,"[6]; Human immunodeficiency virus 1, read-out: EC50 values G118R",1.15 ± 0.27 µM
same,FC G118R,[6]; [17],4.3
same,ratio of the EC50s (our compound relative to DTG) against Y143H,[7]; EC50 compound / EC50 DTG,172.0
same,EC50,"[7]; Human immunodeficiency virus 1, read-out: EC50 values Y143H, single round infection, n = 4",0.378 ± 0.0389 µM
same,FC Y143H,[7]; [17],1.4
same,ratio of the EC50s (our compound relative to DTG) against P142S,[8]; EC50 compound / EC50 DTG,156.4
same,EC50,"[8]; Human immunodeficiency virus 1, read-out: EC50 values P142S",0.344 ± 0.0269 µM
same,ratio of the EC50s (our compound relative to DTG) against Y143C,[9]; EC50 compound / EC50 DTG,308.4
same,EC50,"[9]; Human immunodeficiency virus 1, read-out: EC50 values Y143C, single round infection, n = 4",0.432 ± 0.0753 µM
same,FC Y143C,[9]; [17],1.6
same,ratio of the EC50s (our compound relative to DTG) against R231K,[10]; EC50 compound / EC50 DTG,97.9
same,EC50,"[10]; Human immunodeficiency virus 1, read-out: EC50 values R231K, single round infection, n = 4",0.411 ± 0.058 µM
same,FC R231K,[10]; [17],1.5
same,EC50,"[11]; Human immunodeficiency virus 1, read-out: EC50 values WT, vector carrying WT HIV-1 IN, single round infection, n = 4",0.268 ± 0.0688 µM
same,EC50,"[11]; read-out: EC50 values WT, vector carrying WT HIV-1 IN, single round infection, n = 4",> 0.25 µM
same,ratio of the EC50s (our compound relative to DTG) against S119R,[12]; EC50 compound / EC50 DTG,213.0
same,EC50,"[12]; Human immunodeficiency virus 1, read-out: EC50 values S119R",0.49 ± 0.0431 µM
same,FC S119R,[12]; [17],1.8
same,ratio of the EC50s (our compound relative to DTG) against N117H,[13]; EC50 compound / EC50 DTG,207.3
same,EC50,"[13]; Human immunodeficiency virus 1, read-out: EC50 values N117H",0.497 µM
same,FC N117H,[13]; [17],1.9
same,ratio of the EC50s (our compound relative to DTG) against Y143R,[14]; EC50 compound / EC50 DTG,25.3
same,EC50,"[14]; Human immunodeficiency virus 1, read-out: EC50 values Y143R",0.109 ± 0.0162 µM
same,FC Y143R,[14]; [17],0.4
same,ratio of the EC50s (our compound relative to DTG) against P142H,[15]; EC50 compound / EC50 DTG,159.9
same,EC50,"[15]; Human immunodeficiency virus 1, read-out: EC50 values P142H",0.448 ± 0.0358 µM
same,ratio of the EC50s (our compound relative to DTG) against P142A,[16]; EC50 compound / EC50 DTG,145.9
same,EC50,"[16]; Human immunodeficiency virus 1, read-out: EC50 values P142A",0.365 ± 0.0394 µM
